Test results published in PubChem BioAssay (NCI).
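Dose response: 5 concentrations. Exposure: 48 h. Format: 96-well plates. Endpoint: linear interpolation; highest concentration if not reached. Definition used: TGI = concentration required for complete inhibition of growth.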

Columns and labels:
Assay in all cases: inhibition of tumour cell growth, NCI panel, 48 h
[1] = system: 786-0 renal
[2] = system: A498 renal
[3] = system: A549 NSCLC
[4] = system: ACHN renal
[5] = system: CAKI-1 renal
[6] = system: CCRF-CEM leukemia
[7] = system: COLO 205 colon
[8] = system: DU-145 prostate
[9] = system: HCC-2998 colon
[10] = system: HCT-116 colon
[11] = system: HL-60(TB) leukemia
[12] = system: HOP-62 NSCLC
[13] = system: HOP-92 NSCLC
[14] = system: HS 578T breast
[15] = system: HT29 colon
[16] = system: K-562 leukemia
[17] = system: KM12 colon
[18] = system: LOX IMVI melanoma
[19] = system: M14 melanoma
[20] = system: MCF7 breast
[21] = system: MDA-MB-231 breast
[22] = system: MDA-MB-435
[23] = system: MDA-N
[24] = system: MOLT-4 leukemia
[25] = system: NCI-H226 lung
[26] = system: NCI-H23 lung
[27] = system: NCI-H460 lung
[28] = system: NCI/ADR-RES ovarian
[29] = system: OVCAR-3 ovarian
[30] = system: OVCAR-4 ovarian
[31] = system: OVCAR-5 ovarian
[32] = system: OVCAR-8 ovarian
[33] = system: PC-3 prostate
[34] = system: RPMI-8226 leukemia
[35] = system: RXF 393 renal
[36] = system: SF-268 CNS
[37] = system: SF-295 CNS
[38] = system: SF-539 CNS
[39] = system: SK-MEL-2 melanoma
[40] = system: SK-MEL-28 melanoma
[41] = system: SK-MEL-5 melanoma
[42] = system: SK-OV-3 ovarian
[43] = system: SN12C renal
[44] = system: SNB-19 CNS
[45] = system: SNB-75 CNS
[46] = system: SR leukemia
[47] = system: SW-620 colon
[48] = system: T-47D breast
[49] = system: TK-10 renal
[50] = system: U251 CNS
[51] = system: UACC-257 melanoma
[52] = system: UACC-62 melanoma
[53] = system: UO-31 renal
[54] = system: EKVX NSCLC
[55] = system: HCT-15 colon
[56] = system: IGROV1 ovarian
[57] = system: MALME-3M melanoma
[58] = system: NCI-H522 lung

CCOC(=O)C(=O)/C(=C/n1c(=S)[nH]c2ccc([N+](=O)[O-])cc21)C(=O)OCC
TGI [1]: > 100 µM | TGI [2]: > 100 µM | TGI [3]: > 100 µM | TGI [4]: > 100 µM | TGI [5]: > 100 µM | TGI [6]: > 100 µM | TGI [7]: > 100 µM | TGI [8]: > 100 µM | TGI [9]: > 100 µM | TGI [10]: > 100 µM | TGI [11]: > 100 µM | TGI [12]: > 100 µM | TGI [13]: > 100 µM | TGI [14]: > 100 µM | TGI [15]: > 100 µM | TGI [16]: > 100 µM | TGI [17]: > 100 µM | TGI [18]: > 100 µM | TGI [19]: > 100 µM | TGI [20]: > 100 µM | TGI [21]: > 100 µM | TGI [22]: > 100 µM | TGI [23]: > 100 µM | TGI [24]: > 100 µM | TGI [25]: > 100 µM | TGI [26]: > 100 µM | TGI [27]: > 100 µM | TGI [28]: > 100 µM | TGI [29]: > 100 µM | TGI [30]: > 100 µM | TGI [31]: > 100 µM | TGI [32]: > 100 µM | TGI [33]: > 100 µM | TGI [34]: > 100 µM | TGI [35]: > 100 µM | TGI [36]: > 100 µM | TGI [37]: > 100 µM | TGI [38]: > 100 µM | TGI [39]: > 100 µM | TGI [40]: > 100 µM | TGI [41]: > 100 µM | TGI [42]: > 100 µM | TGI [43]: > 100 µM | TGI [44]: > 100 µM | TGI [45]: > 100 µM | TGI [46]: > 100 µM | TGI [47]: > 100 µM | TGI [48]: > 100 µM | TGI [49]: > 100 µM | TGI [50]: > 100 µM | TGI [51]: > 100 µM | TGI [52]: > 100 µM | TGI [53]: > 100 µM

CCOC(=O)c1csc(NC(=O)CN(C)C)n1
TGI [2]: > 100 µM | TGI [3]: > 100 µM | TGI [4]: > 100 µM | TGI [5]: > 100 µM | TGI [6]: > 100 µM | TGI [7]: > 100 µM | TGI [8]: > 100 µM | TGI [54]: > 100 µM | TGI [9]: > 100 µM | TGI [55]: > 100 µM | TGI [11]: > 100 µM | TGI [12]: > 100 µM | TGI [13]: > 100 µM | TGI [14]: > 100 µM | TGI [15]: > 100 µM | TGI [56]: > 100 µM | TGI [16]: > 100 µM | TGI [17]: > 100 µM | TGI [18]: > 100 µM | TGI [19]: > 100 µM | TGI [20]: > 100 µM | TGI [21]: > 100 µM | TGI [22]: > 100 µM | TGI [23]: > 100 µM | TGI [24]: > 100 µM | TGI [25]: > 100 µM | TGI [26]: > 100 µM | TGI [27]: > 100 µM | TGI [28]: > 100 µM | TGI [29]: > 100 µM | TGI [30]: > 100 µM | TGI [31]: > 100 µM | TGI [32]: > 100 µM | TGI [33]: > 100 µM | TGI [34]: > 100 µM | TGI [35]: > 100 µM | TGI [36]: > 100 µM | TGI [37]: > 100 µM | TGI [38]: > 100 µM | TGI [39]: > 100 µM | TGI [40]: > 100 µM | TGI [41]: > 100 µM | TGI [42]: > 100 µM | TGI [44]: > 100 µM | TGI [45]: > 100 µM | TGI [46]: > 100 µM | TGI [47]: > 100 µM | TGI [48]: > 100 µM | TGI [49]: > 100 µM | TGI [50]: > 100 µM | TGI [51]: > 100 µM | TGI [52]: > 100 µM | TGI [53]: > 100 µM

CN(C)/C=C1\CCc2ccc([N+](=O)[O-])cc2C1=O
TGI [1]: > 100 µM | TGI [2]: > 100 µM | TGI [3]: > 100 µM | TGI [4]: > 100 µM | TGI [5]: > 100 µM | TGI [6]: 52.4 µM | TGI [7]: 43.5 µM | TGI [8]: > 100 µM | TGI [54]: > 100 µM | TGI [9]: > 100 µM | TGI [10]: 36 µM | TGI [55]: > 100 µM | TGI [11]: 66.6 µM | TGI [12]: > 100 µM | TGI [14]: > 100 µM | TGI [15]: 53.7 µM | TGI [56]: > 100 µM | TGI [16]: 56.8 µM | TGI [17]: > 100 µM | TGI [18]: 42.6 µM | TGI [19]: > 100 µM | TGI [57]: > 100 µM | TGI [20]: 48 µM | TGI [21]: 43.8 µM | TGI [22]: 34.8 µM | TGI [23]: 38.1 µM | TGI [24]: 51 µM | TGI [25]: > 100 µM | TGI [26]: > 100 µM | TGI [27]: > 100 µM | TGI [58]: > 100 µM | TGI [28]: > 100 µM | TGI [29]: 41.2 µM | TGI [30]: 34.2 µM | TGI [31]: > 100 µM | TGI [32]: > 100 µM | TGI [33]: > 100 µM | TGI [34]: 62.2 µM | TGI [35]: > 100 µM | TGI [36]: > 100 µM | TGI [37]: > 100 µM | TGI [39]: > 100 µM | TGI [40]: > 100 µM | TGI [41]: > 100 µM | TGI [42]: > 100 µM | TGI [43]: 40.4 µM | TGI [44]: > 100 µM | TGI [45]: > 100 µM | TGI [46]: 74.2 µM | TGI [47]: 97.1 µM | TGI [48]: 89.6 µM | TGI [49]: > 100 µM | TGI [50]: > 100 µM | TGI [51]: 38.2 µM | TGI [52]: 76.4 µM | TGI [53]: > 100 µM
